Experimental findings from patent US10508077B2 (FORMA Therapeutics, Inc., priority 2015, dated 2019) are described below.

Assay [1] concerns the target T1, Recombinant N-terminal GST tag full-length human HDAC8 (Homo sapiens, UniProt Q9BY41).
T1 construct: Recombinant N-terminal GST tag full-length human HDAC8; purchased SignalChem H90-30G-1000; host or cells: Sf9 insect cells (baculovirus)
T1 sequence (Q9BY41 1-377): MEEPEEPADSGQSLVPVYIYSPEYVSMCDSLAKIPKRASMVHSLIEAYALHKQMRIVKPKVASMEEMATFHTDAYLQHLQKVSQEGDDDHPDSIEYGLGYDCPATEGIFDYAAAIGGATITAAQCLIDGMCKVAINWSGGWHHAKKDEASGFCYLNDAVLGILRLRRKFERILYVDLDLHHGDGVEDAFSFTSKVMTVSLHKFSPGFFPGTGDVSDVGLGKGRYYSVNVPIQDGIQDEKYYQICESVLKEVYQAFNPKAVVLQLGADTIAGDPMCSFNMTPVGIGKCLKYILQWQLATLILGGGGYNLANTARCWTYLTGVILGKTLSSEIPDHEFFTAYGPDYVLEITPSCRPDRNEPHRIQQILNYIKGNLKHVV
Put plainly: HDAC8 probe binding assay, time resolved fluorescence (TRF). As to conditions: fluorescein labeled pan-HDAC inhibitor probe, 16 hours incubation, compounds listed under IC50 range headings. The procedure, abridged: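 TR-FRET probe displacement using GST-tagged full-length human HDAC8 (Sf9-expressed, 2.5 nM) with 1.5 nM fluorescein-labelled pan-HDAC inhibitor probe and anti-GST terbium, in HEPES pH 7.5 buffer with GSH, BGG, Triton X-100. Compounds 25 μM–1.3 nM, 10-point; 16 h at room temperature. IC50 from 4-parameter fit of % inhibition versus no-enzyme and DMSO controls.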

The target of assay [2] is T2, Full length human recombinant HDAC8 protein (Homo sapiens, UniProt Q9BY41).
T2 construct: Full length human recombinant HDAC8 protein was expressed in baculoviral system; made in house
T2 sequence (Q9BY41 1-377): T1 sequence (Q9BY41 1-377)
Put plainly: In vitro histone deacetylase assay: enzymatic HDAC8 assay, electrophoretic mobility shift. As to conditions: substrate RHKK(Ac)-NH2, 1 nM enzyme, compounds listed under IC50 range headings. Type of assay: biochemical. The procedure, abridged: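 Baculovirus-expressed full-length human HDAC8 (1 nM) deacetylated 2 µM fluorescent RHKK(Ac)-NH2 peptide in pH 7.5 HEPES, 1% DMSO, at 25 °C, with 12 compound concentrations at 3× spacing. SDS-quenched; product and substrate resolved by microfluidic electrophoresis, P/(S+P) converted to percent inhibition, and IC50 obtained by 4-parameter fit.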
In general terms: Mobility shift assays separate free from complexed probe on a gel.

Counter-ions that a name gives are not always drawn.

For the molecule `O=C(/C=C/c1ccccc1N1CCN(C(=O)C2(c3cccnc3)CC2)CC1)NO` [Example I-321, (E)-N-hydroxy-3-(2-(4-(1-(pyridin-3-yl)cyclopropane-1-carbonyl)piperazin-1-yl)phenyl)acrylamide], the IC50 is at most 1000 nM in assay [1] and below 1000 nM in assay [2].

With `Cc1onc(-c2ccc(F)cc2)c1C(=O)Nc1ccccc1/C=C/C(=O)NO` [Example I-323, (E)-3-(4-fluorophenyl)-N-(2-(3-(hydroxyamino)-3-oxoprop-1-en-1-yl)phenyl)-5-methylisoxazole-4-carboxamide], the IC50 in assay [1] is at most 1000 nM; in assay [2], below 1000 nM.

On to `O=C(NO)/C(F)=C/c1ccccc1NC(=O)c1cccc(C(F)(F)F)c1` [Example I-324, (Z)—N-(2-(2-fluoro-3-(hydroxyamino)-3-oxoprop-1-en-1-yl)phenyl)-3-(trifluoromethyl)benzamide], for which the concentration for half-maximal inhibition (IC50) in assay [1] is at most 1000 nM; in assay [2] it was below 1000 nM.

Turning to `O=C(NO)/C(F)=C/c1ccccc1NC(=O)c1ccccc1Oc1ccccc1` [Example I-325, (Z)—N-(2-(2-fluoro-3-(hydroxyamino)-3-oxoprop-1-enyl)phenyl)-2-phenoxybenzamide hydrochloride], the IC50 in assay [1] is at most 1000 nM; in assay [2], below 1000 nM.

Consider `CN1CCN(c2ccccc2/C=C/C(=O)NO)CC1` [Example I-326, (E)-N-hydroxy-3-(2-(4-methylpiperazin-1-yl)phenyl)acrylamide], for which the results for the IC50 in assay [1] and in assay [2] were at most 1000 nM and below 1000 nM, respectively.

Regarding `O=C(/C=C/c1ccccc1N1CCN(S(=O)(=O)c2ccccc2)CC1=O)NO` [Example I-526, (E)-N-hydroxy-3-(2-(2-oxo-4-(phenylsulfonyl)piperazin-1-yl)phenyl)acrylamide], the IC50 is at most 1000 nM in assay [1] and below 1000 nM in assay [2].

As for `O=C(/C=C/c1ccccc1N1CCN(S(=O)(=O)c2ccc(OC(F)(F)F)cc2)CC1=O)NO` [Example I-527, (E)-N-hydroxy-3-(2-(2-oxo-4-((4-(trifluoromethoxy)phenyl)sulfonyl)piperazin-1-yl)phenyl)acrylamide], the results for the IC50 in assay [1] and in assay [2] were at most 1000 nM and below 1000 nM, respectively.

Take `COc1ccc(NC(=O)N2CCN(c3ccccc3/C=C/C(=O)NO)C(=O)C2)cc1` [Example I-529, (E)-4-(2-(3-(hydroxyamino)-3-oxoprop-1-en-1-yl)phenyl)-N-(4-methoxyphenyl)-3-oxopiperazine-1-carboxamide]: the results for the 50% inhibitory concentration (IC50) in assay [1] and in assay [2] were at most 1000 nM and below 1000 nM, respectively.

For `O=C(/C=C/c1ccccc1N1CCN(Cc2ccc(F)cc2)CC1=O)NO` [Example I-530, (E)-3-(2-(4-(4-fluorobenzyl)-2-oxopiperazin-1-yl)phenyl)-N-hydroxyacrylamide], the IC50 was at most 1000 nM in assay [1] and below 1000 nM in assay [2].

In the case of `Cc1ccc(N2CCN(c3ccccc3/C=C/C(=O)NO)C(=O)C2)cc1` [Example I-533, (E)-N-hydroxy-3-(2-(2-oxo-4-(p-tolyl)piperazin-1-yl)phenyl)acrylamide], the IC50 in assay [1] was at most 1000 nM; in assay [2], below 1000 nM.

For `O=C(/C=C/c1ccccc1NC(=O)c1ccccc1Oc1ccc(Cl)cc1F)NO` [Example I-534, (E)-2-(4-chloro-2-fluorophenoxy)-N-(2-(3-(hydroxyamino)-3-oxoprop-1-en-1-yl)phenyl)benzamide], the IC50 in assay [1] is at most 1000 nM; in assay [2], below 1000 nM.

Consider `Cc1ccc(Oc2ccccc2C(=O)Nc2ccccc2/C=C/C(=O)NO)cn1` [Example I-535, (E)-N-(2-(3-(hydroxyamino)-3-oxoprop-1-en-1-yl)phenyl)-2-((6-methylpyridin-3-yl)oxy)benzamide], for which the IC50 in assay [1] is at most 1000 nM; in assay [2] it was below 1000 nM.

On to `O=C(/C=C/c1ccccc1NC(=O)c1cccc(Oc2ccccc2)c1)NO` [Example I-536, (E)-N-(2-(3-(hydroxyamino)-3-oxoprop-1-en-1-yl)phenyl)-3-phenoxybenzamide], for which the half-maximal inhibitory concentration (IC50) is at most 1000 nM in assay [1] and below 1000 nM in assay [2].

As for `O=C(/C=C/c1ccccc1NC(=O)c1ncccc1Oc1ccccc1)NO` [Example I-537, N-{2-[(1E)-2-(hydroxycarbamoyl)eth-1-en-1-yl]phenyl}-3-phenoxypyridine-2-carboxamide], the 50% inhibitory concentration (IC50) in assay [1] was at most 1000 nM; in assay [2], below 1000 nM.

With `CC(C)(C)OC(=O)N1CCCCC12CCN(c1ccccc1/C=C/C(=O)NO)CC2` [Example I-538, tert-butyl (E)-9-(2-(3-(hydroxyamino)-3-oxoprop-1-en-1-yl)phenyl)-1,9-diazaspiro[5.5]undecane-1-carboxylate], the IC50 is at most 1000 nM in assay [1] and below 1000 nM in assay [2].

With `O=C(/C=C/c1ccccc1NC(=O)c1ncsc1Oc1ccccc1)NO` [Example I-539, N-{2-[(1E)-2-(hydroxycarbamoyl)eth-1-en-1-yl]phenyl}-5-phenoxy-1,3-thiazole-4-carboxamide], the IC50 in assay [1] was at most 1000 nM; in assay [2] it was below 1000 nM.

With `O=C(/C=C/c1ccccc1NC(=O)c1ccccc1Oc1ccc(C(F)(F)F)nc1)NO` [Example I-540, (E)-N-(2-(3-(hydroxyamino)-3-oxoprop-1-en-1-yl)phenyl)-2-((6-(trifluoromethyl)pyridin-3-yl)oxy)benzamide], the concentration for half-maximal inhibition (IC50) in assay [1] is at most 1000 nM; in assay [2], below 1000 nM.

With `CC(C)(C)OC(=O)N1CCCC12CCN(c1ccccc1/C=C/C(=O)NO)C2` (stereo not shown) [Example I-541, tert-butyl (E)-7-(2-(3-(hydroxyamino)-3-oxoprop-1-en-1-yl)phenyl)-1,7-diazaspiro[4.4]nonane-1-carboxylate], the results for the IC50 in assay [1] and in assay [2] were at most 1000 nM and below 1000 nM, respectively.

Regarding `CC(C)(C)OC(=O)N1CC2(CCCN2c2ccccc2/C=C/C(=O)NO)C1` [Example I-542, tert-butyl (E)-5-(2-(3-(hydroxyamino)-3-oxoprop-1-en-1-yl)phenyl)-2,5-diazaspiro[3.4]octane-2-carboxylate], the concentration for half-maximal inhibition (IC50) is at most 1000 nM in assay [1] and below 1000 nM in assay [2].

Turning to `CC(C)(C)OC(=O)N1CCCCC12CCN(c1ccccc1/C=C/C(=O)NO)C2` (stereo not shown) [Example I-543, tert-butyl (E)-2-(2-(3-(hydroxyamino)-3-oxoprop-1-en-1-yl)phenyl)-2,6-diazaspiro[4.5]decane-6-carboxylate], the figures for the half-maximal inhibitory concentration (IC50) in assay [1] and in assay [2] were at most 1000 nM and below 1000 nM, respectively.

For the molecule `O=C(/C=C/c1ccccc1NC(=O)c1nc(Oc2ccccc2)cs1)NO` [Example I-544, N-{2-[(1E)-2-(hydroxycarbamoyl)eth-1-en-1-yl]phenyl}-4-phenoxy-1,3-thiazole-2-carboxamide], the IC50 in assay [1] was at most 1000 nM; in assay [2], below 1000 nM.

As to `CC(=O)N1CCCC12CCN(c1ccccc1/C=C/C(=O)NO)C2` (stereo not shown) [Example I-545], the values for the IC50 in assay [1] and in assay [2] were at most 1000 nM and below 1000 nM, respectively.

`CC(=O)N1CC2(CCCN2c2ccccc2/C=C/C(=O)NO)C1` [Example I-547, (E)-3-(2-(2-acetyl-2,5-diazaspiro[3.4]octan-5-yl)phenyl)-N-hydroxyacrylamide]: the IC50 is at most 1000 nM in assay [1] and below 1000 nM in assay [2].

For the molecule `O=C(/C=C/c1cc(C(F)(F)F)ccc1NC(=O)c1ccccc1Oc1ccc(F)cc1)NO` [Example I-556, 2-(4-fluorophenoxy)-N-{2-[(1E)-2-(hydroxycarbamoyl)eth-1-en-1-yl]-4-(trifluoromethyl)phenyl}benazmide], the IC50 in assay [1] was at most 1000 nM; in assay [2] it was below 1000 nM.

Regarding `O=C(/C=C/c1cc(OC(F)(F)F)ccc1NC(=O)c1ccccc1Oc1ccc(F)cc1)NO` [Example I-557, 2-(4-fluorophenoxy)-N-{2-[(1E)-2-(hydroxycarbamoyl)eth-1-en-1-yl]-4-(trifluoromethoxy)phenyl}benzamide], the IC50 was at most 1000 nM in assay [1] and below 1000 nM in assay [2].

As to `O=C(/C=C/c1ccccc1C(=O)N1CCCC1)NO` [II-15, (E)-N-hydroxy-3-(2-(pyrrolidine-1-carbonyl)phenyl)acrylamide], the half-inhibitory concentration (IC50) in assay [1] is at most 1000 nM; in assay [2], below 1000 nM.

Regarding `O=C(/C=C/c1ccccc1C(=O)N1CCN(c2cnccn2)CC1)NO` [II-22, (E)-N-hydroxy-3-(2-(4-(pyrazin-2-yl)piperazine-1-carbonyl)phenyl)acrylamide], the values for the IC50 in assay [1] and in assay [2] were at most 1000 nM and below 1000 nM, respectively.

In the case of `O=C(/C=C/c1ccccc1C(=O)N1CCC[C@H](Cn2ccnc2)C1)NO` [II-27, (R,E)-3-(2-(3-((1H-imidazol-1-yl)methyl)piperidine-1-carbonyl)phenyl)-N-hydroxyacrylamide], the IC50 was at most 1000 nM in assay [1] and below 1000 nM in assay [2].

Turning to `O=C(/C=C/c1ccccc1C(=O)N1CCC(F)(F)C1)NO` [II-28, (E)-3-(2-(3,3-difluoropyrrolidine-1-carbonyl)phenyl)-N-hydroxyacrylamide], the figures for the IC50 in assay [1] and in assay [2] were at most 1000 nM and below 1000 nM, respectively.

The term IC50 denotes the concentration at which inhibition is half-maximal.
